{"source": "paper PMC10222328", "about": "(Pharmaceuticals, 2023)", "data": [{"experiment": "Acute oral toxicity evaluation in rats", "format": "in vivo, Wistar albino rats", "conditions": "single oral dose 10 mg/kg, after 14 days, (absolute organ weight × 100%)/body weight", "method": "Healthy male rats (n = 24, three rats per group, body weight 180–200 g) were used for conducting an acute oral toxicity study. Animals were divided into the following groups: a control group that included rats that received a single dose of 1% DMSO and experimental groups that involved rats that received compounds 1–7 in the single dose of 10 mg/kg.\nAfter oral administration of the aforementioned agents, rats were kept in single cages and monitored during 14 days. Food and water intake, as well as body weight, were measured daily. All the behavioral changes and any signs of toxicity were monitored daily during 2-week protocol (fur and skin, eyes, salivation, respiration, urination (color), faeces consistency, somatomotor activity, and other alterations in behavior pattern). After accomplishing 14 days, animals were sacrificed and organ weight (liver, kidney, stomach, and heart) was recorded. Relative organ weight was calculated as follows:(absolute organ weight × 100%)/body weight of rat on the day of sacrifice.(1)", "values": [{"smiles": "COc1ccc2cc([C@H](C)C(=O)NC(=S)Nc3ccc(F)cc3)ccc2c1", "note": "[Compound 1, (S)-N-((4-fluorophenyl)carbamothioyl)-2-(6-methoxynaphthalen-2-yl)propanamide]", "Relative organ weight, heart": "0.32 ± 0.02", "Relative organ weight, kidney": "0.31 ± 0.03", "Relative organ weight, liver": "2.73 ± 0.24", "Relative organ weight, stomach": "0.54 ± 0.05"}, {"smiles": "COc1ccc(NC(=S)NC(=O)[C@@H](C)c2ccc3cc(OC)ccc3c2)cc1", "note": "[Compound 2, (S)-2-(6-methoxynaphthalen-2-yl)-N-((4-methoxyphenyl)carbamothioyl)propanamide]", "Relative organ weight, heart": "0.33 ± 0.04", "Relative organ weight, kidney": "0.34 ± 0.04", "Relative organ weight, liver": "3.07 ± 0.38", "Relative organ weight, stomach": "0.57 ± 0.04"}, {"smiles": "CCOc1ccc(NC(=S)NC(=O)[C@@H](C)c2ccc3cc(OC)ccc3c2)cc1", "note": "[Compound 3, (S)-N-((4-ethoxyphenyl)carbamothioyl)-2-(6-methoxynaphthalen-2-yl)propanamide]", "Relative organ weight, heart": "0.31 ± 0.03", "Relative organ weight, kidney": "0.32 ± 0.06", "Relative organ weight, liver": "2.85 ± 0.17", "Relative organ weight, stomach": "0.50 ± 0.05"}, {"smiles": "COc1cccc(NC(=S)NC(=O)[C@@H](C)c2ccc3cc(OC)ccc3c2)c1", "note": "[Compound 4, (S)-2-(6-methoxynaphthalen-2-yl)-N-((3-methoxyphenyl)carbamothioyl)propanamide]", "Relative organ weight, heart": "0.30 ± 0.03", "Relative organ weight, kidney": "0.33 ± 0.07", "Relative organ weight, liver": "2.45 ± 0.15", "Relative organ weight, stomach": "0.50 ± 0.05"}, {"smiles": "COc1ccc2cc([C@H](C)C(=O)NC(=S)Nc3ccc(C(C)=O)cc3)ccc2c1", "note": "[Compound 5, (S)-N-((4-acetylphenyl)carbamothioyl)-2-(6-methoxynaphthalen-2-yl)propanamide]", "Relative organ weight, heart": "0.31 ± 0.03", "Relative organ weight, kidney": "0.30 ± 0.03", "Relative organ weight, liver": "2.97 ± 0.33", "Relative organ weight, stomach": "0.53 ± 0.04"}, {"smiles": "CCOC(=O)C(Cc1ccccc1)NC(=S)NC(=O)C(C)c1ccc2cc(OC)ccc2c1", "note": "[Compound 6, Ethyl(((S)-2-(6-methoxynaphthalen-2-yl)propanoyl)carbamothioyl)-L-phenylalaninate]", "Relative organ weight, heart": "0.34 ± 0.02", "Relative organ weight, kidney": "0.35 ± 0.05", "Relative organ weight, liver": "3.01 ± 0.29", "Relative organ weight, stomach": "0.55 ± 0.03"}, {"smiles": "COC(=O)[C@H](Cc1cn(C)c2ccccc12)NC(=S)NC(=O)[C@@H](C)c1ccc2cc(OC)ccc2c1", "note": "[Compound 7, Methyl-N^α-(((S)-2-(6-methoxynaphthalen-2-yl)propanoyl)carbamothioyl)-1-methyltryptophanate]", "Relative organ weight, heart": "0.33 ± 0.03", "Relative organ weight, kidney": "0.29 ± 0.03", "Relative organ weight, liver": "2.64 ± 0.46", "Relative organ weight, stomach": "0.50 ± 0.04"}]}]}
